Assay results published in the supplement of paper PMC10307832.

Experiments:
Test in all cases: relative viability (nuclei count vs DMSO), 5 days (fraction); higher = more cells survive
[1] = compound: C1=CC=C2C(=C1)N=C(S2)C(C#N)C3=NC(=NC=C3)NCCC4=CN=CC=C4 + C[C@@H](Oc1cc(-c2cnn(C3CCNCC3)c2)cnc1N)c1c(Cl)ccc(F)c1Cl [Crizotinib] (partner 1 µM)
Summary of the method: (§1)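 Each reported value is a median over duplicate plates. It expresses relative viability: treated-well nuclei count divided by vehicle-well nuclei count. Lung cancer cell lines in 1536-well plates were dosed by pin tool a day after seeding, alone with one drug or with a fixed anchor-drug dose plus five library-drug doses (not always all listed) in √10 steps, and nuclei were counted after 5 days.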

[2] = compound: C1=CC=C2C(=C1)N=C(S2)C(C#N)C3=NC(=NC=C3)NCCC4=CN=CC=C4 + CS(=O)(=O)N1CCN(Cc2cc3nc(-c4cccc5[nH]ncc45)nc(N4CCOCC4)c3s2)CC1 [Pictilisib] (partner 1 µM)
Summary of the method: as §1

[3] = compound: COc1cc2/c(=N/c3ccc(Br)cc3F)nc[nH]c2cc1OCC1CCN(C)CC1 [Vandetanib] + O=C(CCCCCCC(=O)Nc1ccccc1)NO [Vorinostat] (partner 1 µM)
Summary of the method: as §1

[4] = compound: COc1cc(N2CCC(N3CCN(C)CC3)CC2)ccc1Nc1ncc(Cl)c(Nc2ccccc2S(=O)(=O)C(C)C)n1 [NVP-TAE684] + CC(=O)c1c(C)c2cnc(Nc3ccc(N4CCNCC4)cn3)nc2n(C2CCCC2)c1=O [Palbociclib] (partner 0.5 µM)
Summary of the method: as §1

Cell Line	relative viability ([1]; first compound 0.005 µM)	relative viability ([1]; first compound 0.01581 µM)	relative viability ([1]; first compound 0.05 µM)	relative viability ([1]; first compound 0.1581 µM)	relative viability ([1]; first compound 0.5 µM)	relative viability ([2]; first compound 0.005 µM)	relative viability ([2]; first compound 0.01581 µM)	relative viability ([2]; first compound 0.05 µM)	relative viability ([2]; first compound 0.1581 µM)	relative viability ([2]; first compound 0.5 µM)	relative viability ([3]; first compound 0.02 µM)	relative viability ([3]; first compound 0.06325 µM)	relative viability ([3]; first compound 0.2 µM)	relative viability ([3]; first compound 0.6325 µM)	relative viability ([3]; first compound 2 µM)	relative viability ([4]; first compound 0.2 µM)	relative viability ([4]; first compound 0.6325 µM)	relative viability ([4]; first compound 2 µM)
ABC-1	1.05	1.1	0.941	1.21	0.925	0.84	0.605	0.758	0.87	0.725	1.05	1.11	1.02	0.96	0.773	0.635	0.759	0.363
NCI-H2228	0.464	0.444	0.483	0.454	0.386	0.341	0.283	0.37	0.307	0.402	0.592	0.474	0.747	1.04	0.679	0.44	0.253	0.279
PC-14	0.856	0.961	0.929	0.972	0.744		0.785	0.778	0.498	0.533	0.774	0.619	0.493	0.107	0.0824	0.434	0.398	0.0888
H3255	0.722	0.811	0.911	0.937	0.824	0.493	0.449	0.47	0.553	0.535	0.763	0.704	0.808	0.507	0.644	0.324	0.299	0.296
NCI-H441		0.486	0.691	0.834	0.554		0.458	0.549	0.55	0.494	0.781	0.702	0.8	0.767	0.821	0.182	0.192	0.154
LK-2			0.216	0.209	0.238			0.531	0.597	0.685	0.31	0.311	0.341	0.265	0.365	0.614	0.756	0.296
SW 1573	0.753	0.809	0.722	0.793	0.785	0.373	0.542	0.505	0.497	0.497	0.635	0.674		0.957	0.751	0.414	0.294	0.169
LU99A	0.457	0.686	0.599	0.599	0.51	0.281	0.354	0.336	0.394	0.338	0.474	0.377	0.499	0.49	0.528	0.373	0.429	0.254
NCI-H322M	0.845	0.85	0.953	0.891	0.796	0.482	0.477	0.492	0.552	0.486	0.867	0.853	0.874	0.761	0.583	0.425	0.43	0.375
